Measured values from PubChem BioAssay (NCI).
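Dose response: 5 concentrations. Exposure: 48 h. Format: 96-well plates. Endpoint: linear interpolation; highest concentration if not reached. Here, GI50 denotes the concentration required for 50% inhibition of growth. TGI denotes the concentration required for complete inhibition of growth.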

Assays:
Test in all cases: DTP human tumour cell line panel, 48 h
[1] = tested on: BT-549 breast
[2] = tested on: RXF 393 renal
[3] = tested on: OVCAR-5 ovarian
[4] = tested on: NCI-H460 lung
[5] = tested on: SF-268 CNS
[6] = tested on: A549 NSCLC
[7] = tested on: HL-60(TB) leukemia
[8] = tested on: 786-0 renal
[9] = tested on: LOX IMVI melanoma
[10] = tested on: MDA-MB-231 breast
[11] = tested on: UO-31 renal
[12] = tested on: HCT-116 colon
[13] = tested on: MOLT-4 leukemia
[14] = tested on: SK-MEL-5 melanoma
[15] = tested on: HT29 colon
[16] = tested on: PC-3 prostate
[17] = tested on: HS 578T breast
[18] = tested on: SK-OV-3 ovarian
[19] = tested on: ACHN renal
[20] = tested on: SN12C renal
[21] = tested on: NCI/ADR-RES ovarian
[22] = tested on: CAKI-1 renal
[23] = tested on: SR leukemia
[24] = tested on: K-562 leukemia
[25] = tested on: HCT-15 colon
[26] = tested on: OVCAR-8 ovarian
[27] = tested on: KM12 colon
[28] = tested on: SF-295 CNS
[29] = tested on: UACC-62 melanoma
[30] = tested on: U251 CNS
[31] = tested on: HCC-2998 colon
[32] = tested on: HOP-62 NSCLC
[33] = tested on: T-47D breast
[34] = tested on: UACC-257 melanoma
[35] = tested on: TK-10 renal
[36] = tested on: SW-620 colon
[37] = tested on: RPMI-8226 leukemia
[38] = tested on: MALME-3M melanoma
[39] = tested on: EKVX NSCLC
[40] = tested on: NCI-H226 lung
[41] = tested on: SNB-19 CNS
[42] = tested on: SF-539 CNS
[43] = tested on: CCRF-CEM leukemia
[44] = tested on: MCF7 breast
[45] = tested on: NCI-H23 lung
[46] = tested on: OVCAR-4 ovarian
[47] = tested on: NCI-H522 lung
[48] = tested on: IGROV1 ovarian
[49] = tested on: SNB-75 CNS
[50] = tested on: COLO 205 colon
[51] = tested on: A498 renal
[52] = tested on: SK-MEL-2 melanoma
[53] = tested on: M14 melanoma
[54] = tested on: DU-145 prostate

`COc1ccc2c(c1)nc(N)c1c3cccnc3cn21` was tested, and the GI50 [1] was 447 nM, the TGI [1] was 28900 nM and the GI50 [2] was 22.4 nM. For the same compound, the TGI [2] was 77.7 nM, the GI50 [3] was 438 nM and the TGI [3] was > 100000 nM. For the same compound, the GI50 [4] was 92.3 nM, the TGI [4] was 1770 nM and the GI50 [5] was 91.7 nM. For the same compound, the TGI [5] was 76900 nM, the GI50 [6] was 56.5 nM and the TGI [6] was 16600 nM. The GI50 [7] was 31.3 nM, the TGI [7] was 18300 nM and the GI50 [8] was 115 nM. For the same compound, the TGI [8] was 16700 nM, the GI50 [9] was 71.3 nM and the TGI [9] was 18700 nM. For the same compound, the GI50 [10] was 556 nM, the TGI [10] was 22400 nM and the GI50 [11] was 77.6 nM. The TGI [11] was 17900 nM, the GI50 [12] was 47.1 nM and the TGI [12] was > 36700 nM. For the same compound, the GI50 [13] was 86.1 nM, the TGI [13] was > 100000 nM and the GI50 [14] was 32.2 nM. It also gave a TGI [14] of 836 nM, a GI50 [15] of 35.1 nM and a TGI [15] of 1880 nM. It also gave a GI50 [16] of 41.2 nM, a TGI [16] of 27700 nM and a GI50 [17] of 95.1 nM. For the same compound, the TGI [17] was > 49600 nM, the GI50 [18] was 50.8 nM and the TGI [18] was > 79300 nM. For the same compound, the GI50 [19] was 93.8 nM, the TGI [19] was 15000 nM and the GI50 [20] was 382 nM. For the same compound, the TGI [20] was > 100000 nM, the GI50 [21] was 38.2 nM and the TGI [21] was 50200 nM. The GI50 [22] was 40.7 nM, the TGI [22] was 16300 nM and the GI50 [23] was 33.9 nM. It also gave a TGI [23] of 22400 nM, a GI50 [24] of 38 nM and a TGI [24] of 24900 nM. The GI50 [25] was 45.6 nM, the TGI [25] was 33700 nM and the GI50 [26] was 89.8 nM. The TGI [26] was > 54500 nM, the GI50 [27] was 47.3 nM and the TGI [27] was > 41200 nM. The GI50 [28] was 36.5 nM, the TGI [28] was 1130 nM and the GI50 [29] was 54.1 nM. It also gave a TGI [29] of 22100 nM, a GI50 [30] of 47.4 nM and a TGI [30] of 14600 nM. The GI50 [31] was 103 nM, the TGI [31] was 17500 nM and the GI50 [32] was 273 nM. For the same compound, the TGI [32] was > 78900 nM, the GI50 [33] was 6750 nM and the TGI [33] was 33400 nM. It also gave a GI50 [34] of 64 nM, a TGI [34] of 26700 nM and a GI50 [35] of 252 nM. It also gave a TGI [35] of 19900 nM, a GI50 [36] of 37.3 nM and a TGI [36] of 14500 nM. The GI50 [37] was 54.6 nM, the TGI [37] was 34200 nM and the GI50 [38] was 153 nM. For the same compound, the TGI [38] was 25700 nM, the GI50 [39] was 2910 nM and the TGI [39] was > 100000 nM. The GI50 [40] was 737 nM, the TGI [40] was 27000 nM and the GI50 [41] was 212 nM. For the same compound, the TGI [41] was > 100000 nM, the GI50 [42] was 43.2 nM and the TGI [42] was 1090 nM. For the same compound, the GI50 [43] was 39 nM, the TGI [43] was > 100000 nM and the GI50 [44] was 302 nM. For the same compound, the TGI [44] was 17500 nM, the GI50 [45] was 345 nM and the TGI [45] was 50000 nM. For the same compound, the GI50 [46] was 294 nM, the TGI [46] was > 100000 nM and the GI50 [47] was 41.1 nM. The TGI [47] was 3450 nM, the GI50 [48] was 106 nM and the TGI [48] was 37100 nM. For the same compound, the GI50 [49] was 60 nM, the TGI [49] was > 100000 nM and the GI50 [50] was 45.2 nM. For the same compound, the TGI [50] was 668 nM, the GI50 [51] was 33.9 nM and the TGI [51] was 3040 nM. For the same compound, the GI50 [52] was 843 nM, the TGI [52] was 24200 nM and the GI50 [53] was 39 nM. The TGI [53] was 27900 nM, the GI50 [54] was 56.1 nM and the TGI [54] was > 33600 nM.
